Tests used:
[1] = biological target: T1, K-Ras G12D (Homo sapiens, UniProt P01116, G12D); assay: HTRF resonance energy transfer assay, K-Ras G12D / SOS1 interaction; format: biochemical; details: HTRF assay of Example 5; read-out: IC50 against K-Ras G12D
T1 construct: made in house; host or cells: E. coli BL21 (DE3)
How it was run: (§1)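 Buffer about 5 mM HEPES pH 7.4 with ~150 mM NaCl, ~1 mM DTT, 0.05% BSA, 0.0025% (v/v) Igepal. Protein constructs used at molarity matching the IC50 range studied (e.g. ~500 nM). FRET between tagged K-Ras and hSOS1 measured after short incubation.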

[2] = biological target: T2, K-Ras G12S (Homo sapiens, UniProt P01116, G12S); assay: HTRF resonance energy transfer assay, K-Ras G12S / SOS1 interaction; format: biochemical; details: HTRF assay of Example 5; read-out: IC50 against K-Ras G12S
T2 construct: made in house; host or cells: E. coli BL21 (DE3)
T2 sequence (P01116 1-188 isoform P01116-2 G12S): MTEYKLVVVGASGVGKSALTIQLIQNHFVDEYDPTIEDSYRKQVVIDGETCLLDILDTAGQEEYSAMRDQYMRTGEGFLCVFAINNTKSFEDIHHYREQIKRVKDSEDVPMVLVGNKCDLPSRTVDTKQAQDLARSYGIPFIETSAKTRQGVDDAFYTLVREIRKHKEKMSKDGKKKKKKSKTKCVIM
How it was run: as §1

[3] = biological target: T3, K-Ras G12V (Homo sapiens, UniProt P01116, G12V); assay: HTRF resonance energy transfer assay, K-Ras G12V / SOS1 interaction; format: biochemical; details: HTRF assay of Example 5; read-out: IC50 against K-Ras G12V
T3 construct: made in house; host or cells: E. coli BL21 (DE3)
T3 sequence (P01116 1-188 isoform P01116-2 G12V): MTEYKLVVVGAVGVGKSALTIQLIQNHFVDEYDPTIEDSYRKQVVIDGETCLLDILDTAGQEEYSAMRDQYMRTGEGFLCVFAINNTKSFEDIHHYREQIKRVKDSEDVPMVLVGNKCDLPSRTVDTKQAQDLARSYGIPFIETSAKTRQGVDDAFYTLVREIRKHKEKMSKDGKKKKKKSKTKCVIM
How it was run: as §1

[4] = biological target: T4, K-Ras WT (Homo sapiens, UniProt P01116); assay: HTRF resonance energy transfer assay, K-Ras WT / SOS1 interaction; format: biochemical; details: HTRF assay of Example 5; read-out: IC50 against K-Ras WT
T4 construct: made in house; host or cells: E. coli BL21 (DE3)
T4 sequence (P01116 1-188 isoform P01116-2): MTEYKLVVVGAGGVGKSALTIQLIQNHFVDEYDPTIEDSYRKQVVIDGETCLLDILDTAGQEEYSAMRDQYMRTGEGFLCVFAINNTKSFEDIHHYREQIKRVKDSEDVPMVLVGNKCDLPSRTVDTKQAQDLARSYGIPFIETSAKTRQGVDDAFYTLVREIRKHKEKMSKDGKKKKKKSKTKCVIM
How it was run: as §1

[5] = system: GP2D cells; assay: Ras cellular assay, growth of cells with K-Ras G12D mutation (CellTiter-Glo); format: cell-based; details: cell growth, Example 9, G12D mutation, read-out: IC50 against GP2D cells
[6] = system: A549 cells; assay: Ras cellular assay, growth of cells with K-Ras G12S mutation (CellTiter-Glo); format: cell-based; details: Homo sapiens, cell growth, Example 9, G12S mutation, read-out: IC50 against A549 cells
How it was run: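 Growth inhibition IC50 values come from four-parameter fits of CellTiter-Glo luminescence, read about 6 days after compound addition. G12S-mutant A549 cells (e.g. 800/well, RPMI-1640 + 10% heat-inactivated FBS) were plated in tissue-culture-treated or ultra-low-attachment 384-well format. Dosing began the following day with serial dilutions, e.g. 10 points, 3-fold.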

[7] = system: SW620 cells; assay: Ras cellular assay, growth of cells with K-Ras G12V mutation (CellTiter-Glo); format: cell-based; details: Homo sapiens, SW-620; cell growth, Example 9, G12V mutation; read-out: IC50 against SW620 cells
How it was run: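 IC50 values came from a four-parameter fit of CellTiter-Glo viability, read roughly 6 days after dosing with e.g. a 10-point threefold dilution series. G12V-mutant SW620 cells (e.g. 800 per well) had been plated the previous day in RPMI-1640/10% heat-inactivated FBS, on tissue culture-treated or ultra-low attachment plates.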

T1 sequence (P01116 1-188 isoform P01116-2 G12D): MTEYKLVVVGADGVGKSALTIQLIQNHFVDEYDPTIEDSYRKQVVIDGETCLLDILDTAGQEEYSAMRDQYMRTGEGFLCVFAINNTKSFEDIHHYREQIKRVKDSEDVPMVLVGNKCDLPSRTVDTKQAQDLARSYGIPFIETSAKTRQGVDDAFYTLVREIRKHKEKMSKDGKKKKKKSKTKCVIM

Row | IC50 [1] [µM] | IC50 [2] [µM] | IC50 [3] [µM] | IC50 [4] [µM] | IC50 [6] [µM] | IC50 [7] [µM] | Compound | IC50 [5] [µM]
1 | < 0.1 | < 0.1 | < 0.1 | < 0.1 | < 5 | < 5 | CO[C@@H](C)C(=O)N1CCC(N2CCOc3c(Cl)c(-c4ccc(F)c5sc(N)c(C#N)c45)c(F)c4nc(OC[C@@]56CCCN5C[C@H](F)C6)nc2c34)C1 (stereo partly drawn) [Compound 742, 2-amino-4-(8-chloro-10-fluoro-2-(((2R,7aS)-2-fluorotetrahydro-1H-pyrrolizin-7a(5H)-yl)methoxy)-4-(1-((S)-2-methoxypropanoyl)pyrrolidin-3-yl)-5,6-dihydro-4H-[1,4]oxazepino[5,6,7-de]quinazolin-9-yl)-7-fluorobenzo[b]thiophene-3-carbonitrile] | < 0.5
2 | < 0.1 | < 0.1 | < 0.1 | < 0.1 | < 5 | < 5 | N#Cc1c(N)sc2c(F)ccc(-c3c(Cl)c4c5c(nc(OC[C@@]67CCCN6C[C@H](F)C7)nc5c3F)N(C3CCC5(C3)CN(C(=O)CC3COC3)C5)CCO4)c12 (stereo partly drawn) [Compound 1115, 2-amino-4-(8-chloro-10-fluoro-2-(((2R,7aS)-2-fluorotetrahydro-1H-pyrrolizin-7a(5H)-yl)methoxy)-4-(2-(2-(oxetan-3-yl)acetyl)-2-azaspiro[3.4]octan-6-yl)-5,6-dihydro-4H-[1,4]oxazepino[5,6,7-de]quinazolin-9-yl)-7-fluorobenzo[b]thiophene-3-carbonitrile] | < 0.5
3 | < 0.1 | < 0.1 | < 0.1 | < 0.1 | < 5 | < 5 | N#Cc1c(N)sc2c(F)ccc(-c3c(Cl)c4c5c(nc(OC[C@@]67CCCN6C[C@H](F)C7)nc5c3F)N(C3CCOC3)CC(CO)O4)c12 (stereo partly drawn) [Compound 681, 2-amino-4-(8-chloro-10-fluoro-2-(((2R,7aS)-2-fluorotetrahydro-1H-pyrrolizin-7a(5H)-yl)methoxy)-6-(hydroxymethyl)-4-(tetrahydrofuran-3-yl)-5,6-dihydro-4H-[1,4]oxazepino[5,6,7-de]quinazolin-9-yl)-7-fluorobenzo[b]thiophene-3-carbonitrile] | < 0.5
4 | < 0.1 | < 0.1 | < 0.1 | < 0.1 | < 5 | < 5 | CC1Oc2c(Cl)c(-c3ccc(F)c4sc(N)c(C#N)c34)c(F)c3nc(OC[C@@]45CCCN4C[C@H](F)C5)nc(c23)N(CC(F)F)C1C (stereo partly drawn) [Compound 944, 2-amino-4-(8-chloro-4-(2,2-difluoroethyl)-10-fluoro-2-(((2R,7aS)-2-fluorotetrahydro-1H-pyrrolizin-7a(5H)-yl)methoxy)-5,6-dimethyl-5,6-dihydro-4H-[1,4]oxazepino[5,6,7-de]quinazolin-9-yl)-7-fluorobenzo[b]thiophene-3-carbonitrile] | < 0.5
5 | < 0.1 | < 0.1 | < 0.1 | < 0.1 | < 5 | < 5 | N#Cc1c(N)sc2c(F)ccc(-c3c(Cl)c4c5c(nc(OC[C@@]67CCCN6C[C@H](F)C7)nc5c3F)N(C3CCCN(C(=O)C(F)F)C3)CCO4)c12 (stereo partly drawn) [Compound 998, 2-amino-4-(8-chloro-4-(1-(2,2-difluoroacetyl)piperidin-3-yl)-10-fluoro-2-(((2R,7aS)-2-fluorotetrahydro-1H-pyrrolizin-7a(5H)-yl)methoxy)-5,6-dihydro-4H-[1,4]oxazepino[5,6,7-de]quinazolin-9-yl)-7-fluorobenzo[b]thiophene-3-carbonitrile] | < 0.5
6 | < 0.1 | < 0.1 | < 0.1 | < 0.1 | < 5 | < 5 | N#Cc1c(N)sc2c(F)ccc(-c3c(Cl)c4c5c(nc(OC[C@@]67CCCN6C[C@H](F)C7)nc5c3F)N(CCC(F)F)CCO4)c12 [Compound 807, 2-amino-4-(8-chloro-4-(3,3-difluoropropyl)-10-fluoro-2-(((2R,7aS)-2-fluorotetrahydro-1H-pyrrolizin-7a(5H)-yl)methoxy)-5,6-dihydro-4H-[1,4]oxazepino[5,6,7-de]quinazolin-9-yl)-7-fluorobenzo[b]thiophene-3-carbonitrile] | < 0.5
7 | < 0.1 | < 0.1 | < 0.1 | < 0.1 | < 5 | < 5 | N#Cc1c(N)sc2c(F)ccc(-c3c(Cl)c4c5c(nc(OC[C@@]67CCCN6C[C@H](F)C7)nc5c3F)N(C3COCCOC3)CCO4)c12 [Compound 803, 2-amino-4-(8-chloro-4-(1,4-dioxepan-6-yl)-10-fluoro-2-(((2R,7aS)-2-fluorotetrahydro-1H-pyrrolizin-7a(5H)-yl)methoxy)-5,6-dihydro-4H-[1,4]oxazepino[5,6,7-de]quinazolin-9-yl)-7-fluorobenzo[b]thiophene-3-carbonitrile] | < 0.5
8 | < 0.1 | < 0.1 | < 0.1 | < 0.1 | < 5 | < 5 | N#Cc1c(N)sc2c(F)ccc(-c3c(Cl)c4c5c(nc(OC[C@@]67CCCN6C[C@H](F)C7)nc5c3F)N(C3CCN(C(=O)C5CC(C(F)F)C5)C3)CCO4)c12 (stereo partly drawn) [Compound 864, 2-amino-4-(8-chloro-4-(1-(3-(difluoromethyl)cyclobutane-1-carbonyl)pyrrolidin-3-yl)-10-fluoro-2-(((2R,7aS)-2-fluorotetrahydro-1H-pyrrolizin-7a(5H)-yl)methoxy)-5,6-dihydro-4H-[1,4]oxazepino[5,6,7-de]quinazolin-9-yl)-7-fluorobenzo[b]thiophene-3-carbonitrile] | < 0.5
9 | < 0.1 | < 0.1 | < 0.1 | < 0.1 | < 5 | < 5 | CN(C)C1(CN2CCOc3c(Cl)c(-c4ccc(F)c5sc(N)c(C#N)c45)c(F)c4nc(OC[C@@]56CCCN5C[C@H](F)C6)nc2c34)CC1 [Compound 725, 2-amino-4-(8-chloro-4-((1-(dimethylamino)cyclopropyl)methyl)-10-fluoro-2-(((2R,7aS)-2-fluorotetrahydro-1H-pyrrolizin-7a(5H)-yl)methoxy)-5,6-dihydro-4H-[1,4]oxazepino[5,6,7-de]quinazolin-9-yl)-7-fluorobenzo[b]thiophene-3-carbonitrile] | < 0.5
10 | < 0.1 | < 0.1 | < 0.1 | < 0.1 | < 5 | < 5 | N#Cc1c(N)sc2c(F)ccc(-c3c(Cl)c4c5c(nc(OC[C@@]67CCCN6C[C@H](F)C7)nc5c3F)N(C3CC35CN(C=O)C5)CCO4)c12 (stereo partly drawn) [Compound 957, 2-amino-4-(8-chloro-10-fluoro-2-(((2R,7aS)-2-fluorotetrahydro-1H-pyrrolizin-7a(5H)-yl)methoxy)-4-(5-formyl-5-azaspiro[2.3]hexan-1-yl)-5,6-dihydro-4H-[1,4]oxazepino[5,6,7-de]quinazolin-9-yl)-7-fluorobenzo[b]thiophene-3-carbonitrile] | < 0.5
11 | < 0.1 | < 0.1 | < 0.1 | < 0.1 | < 5 | < 5 | C[C@H]1CN(CCN(C)C)c2nc(OC[C@@]34CCCN3C[C@H](F)C4)nc3c(F)c(-c4ccc(F)c5sc(N)c(C#N)c45)c(Cl)c(c23)O1 [Compound 950, 2-amino-4-((6S)-8-chloro-4-(2-(dimethylamino)ethyl)-10-fluoro-2-(((2R,7aS)-2-fluorotetrahydro-1H-pyrrolizin-7a(5H)-yl)methoxy)-6-methyl-5,6-dihydro-4H-[1,4]oxazepino[5,6,7-de]quinazolin-9-yl)-7-fluorobenzo[b]thiophene-3-carbonitrile] | < 0.5
12 | < 0.1 | < 0.1 | < 0.1 | < 0.1 | < 5 | < 5 | N#Cc1c(N)sc2c(F)ccc(-c3c(Cl)c4c5c(nc(OC[C@@]67CCCN6C[C@H](F)C7)nc5c3F)N(CC(F)F)C(CCO)CO4)c12 (single isomer, unassigned) [Compound 1049] | < 0.5
